Data set [1] can be described thus: Stability in human liver microsomes assessed as parent compound remaining after 10 mins. The conditions noted are these: liver microsomes, read-out: Stability. The data set is classed as ADME, Microsome. On the technique in general: Liver microsomes are a subcellular fraction often used to study metabolism.
For data set [2], the target named is T1, Nuclear receptor ROR-beta (Homo sapiens, UniProt Q92753).
T1 sequence (Q92753 whole entry): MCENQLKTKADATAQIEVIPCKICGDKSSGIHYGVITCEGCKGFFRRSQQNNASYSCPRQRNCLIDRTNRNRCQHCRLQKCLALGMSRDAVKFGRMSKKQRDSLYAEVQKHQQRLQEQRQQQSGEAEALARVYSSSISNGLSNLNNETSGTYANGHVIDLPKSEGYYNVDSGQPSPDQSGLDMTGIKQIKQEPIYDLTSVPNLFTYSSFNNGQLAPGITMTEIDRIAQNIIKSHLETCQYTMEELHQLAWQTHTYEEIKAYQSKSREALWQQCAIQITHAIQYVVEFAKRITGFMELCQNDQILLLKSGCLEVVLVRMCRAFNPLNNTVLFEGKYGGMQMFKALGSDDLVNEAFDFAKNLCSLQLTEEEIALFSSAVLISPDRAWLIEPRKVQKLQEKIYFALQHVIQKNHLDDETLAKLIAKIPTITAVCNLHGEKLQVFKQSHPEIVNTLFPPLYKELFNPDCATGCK
The experiment in a line: Inverse agonist activity at human Gal4-fused RORbeta LBD (200 to 559 residues) expressed in human Jurkat cells measured after 18 hrs by steady-glo luciferase reporter gene assay. It is filed as cell-based. (Reporter assays use an easily measured gene product as a stand-in for the process of interest.)

The nature of data set [3]: Permeability in human Caco2 cells. The settings on record: Caco-2, read-out: permeability. It is filed as ADME, cell-based. A general note: Caco-2 cells form a polarised layer with tight junctions and transporters.
Another data set concerns the target T2, Cytochrome P450 1A2 (Homo sapiens, UniProt P05177).
T2 sequence (P05177 whole entry): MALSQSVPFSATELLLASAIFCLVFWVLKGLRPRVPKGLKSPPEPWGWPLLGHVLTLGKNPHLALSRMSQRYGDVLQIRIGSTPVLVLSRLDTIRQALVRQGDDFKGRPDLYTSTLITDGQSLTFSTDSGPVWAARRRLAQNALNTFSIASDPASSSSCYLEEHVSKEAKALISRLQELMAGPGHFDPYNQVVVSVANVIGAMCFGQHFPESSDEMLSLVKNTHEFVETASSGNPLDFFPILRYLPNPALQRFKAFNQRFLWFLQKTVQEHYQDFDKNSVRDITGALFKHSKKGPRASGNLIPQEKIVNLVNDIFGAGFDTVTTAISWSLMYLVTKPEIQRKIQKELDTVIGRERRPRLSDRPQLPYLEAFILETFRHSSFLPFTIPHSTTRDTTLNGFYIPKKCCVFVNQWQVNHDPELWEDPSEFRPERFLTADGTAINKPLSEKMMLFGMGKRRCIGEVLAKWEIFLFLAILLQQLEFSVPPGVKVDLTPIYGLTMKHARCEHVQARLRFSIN
Briefly: Inhibition of CYP1A2 (unknown origin). It is filed as ADME.

The target of the next data set is T3, Cytochrome P450 2C8 (Homo sapiens, UniProt P10632).
T3 sequence (P10632 whole entry): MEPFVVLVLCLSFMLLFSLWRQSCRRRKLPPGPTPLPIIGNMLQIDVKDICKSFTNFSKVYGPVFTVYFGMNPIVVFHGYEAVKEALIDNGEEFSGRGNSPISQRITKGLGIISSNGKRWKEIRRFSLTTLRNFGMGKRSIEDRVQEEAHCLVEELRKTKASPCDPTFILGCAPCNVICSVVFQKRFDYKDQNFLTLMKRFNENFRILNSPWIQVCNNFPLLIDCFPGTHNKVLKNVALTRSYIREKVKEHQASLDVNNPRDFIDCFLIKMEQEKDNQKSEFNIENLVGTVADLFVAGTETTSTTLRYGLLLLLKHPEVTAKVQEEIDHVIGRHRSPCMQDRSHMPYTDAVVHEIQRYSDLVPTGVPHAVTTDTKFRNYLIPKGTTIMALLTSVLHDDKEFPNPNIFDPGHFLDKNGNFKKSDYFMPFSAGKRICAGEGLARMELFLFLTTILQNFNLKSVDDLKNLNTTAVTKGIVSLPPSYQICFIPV
Briefly: Inhibition of CYP2C8 (unknown origin). The data set is classed as ADME.

The target in another data set is Cytochrome P450 2C9 (Homo sapiens, UniProt P11712). The experiment in a line: Inhibition of CYP2C9 (unknown origin). The data set is classed as ADME.
Chain of Cytochrome P450 2C9 (P11712 whole entry): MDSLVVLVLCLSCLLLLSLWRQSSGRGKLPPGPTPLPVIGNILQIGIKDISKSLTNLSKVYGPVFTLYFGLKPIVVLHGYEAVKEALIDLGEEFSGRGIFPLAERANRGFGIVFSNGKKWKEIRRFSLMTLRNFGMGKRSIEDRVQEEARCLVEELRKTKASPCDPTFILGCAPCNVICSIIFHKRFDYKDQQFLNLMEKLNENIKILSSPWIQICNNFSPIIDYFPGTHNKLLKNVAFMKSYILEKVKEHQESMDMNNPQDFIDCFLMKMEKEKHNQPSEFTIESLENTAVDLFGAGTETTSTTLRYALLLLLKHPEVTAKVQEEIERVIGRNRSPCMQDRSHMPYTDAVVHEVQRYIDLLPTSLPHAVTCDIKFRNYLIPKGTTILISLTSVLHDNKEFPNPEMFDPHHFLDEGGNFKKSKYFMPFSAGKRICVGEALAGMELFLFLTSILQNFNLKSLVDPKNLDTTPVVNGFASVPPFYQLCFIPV
Data set [4] is described as follows: Tmax in Balb/c mouse at 10 mg/kg, po. The conditions noted are these: in vivo. The data set is classed as ADME, organism-based.

For orientation: EC50 means the concentration that produces a half-maximal response. Read a low EC50 as higher potency in that assay. Broadly, the IC50 is the concentration at which inhibition is half-maximal. Read a high IC50 as lower potency. Usually Tmax stands for the time from dosing to the highest level.

On to `O=C(O)C12CCC(C(=O)N3CC[C@](c4ccc(C(F)(C(F)(F)F)C(F)(F)F)cc4)(S(=O)(=O)c4ccc(F)cc4)C3)(CC1)CC2`, for which the remaining at 10 min in data set [1] was found to be 100%. The molecule also returned an EC50 in data set [2] of over 40 µM. For the same molecule, in data set [3], the Papp was 15 ×10⁻⁶ cm/s. In addition, the IC50 against Cytochrome P450 1A2, against Cytochrome P450 2C8 and on Cytochrome P450 2C9 was over 10 µM in each case. Besides, the Tmax in data set [4] is 60 min.
`CC[C@]1(C(=O)N2CC[C@](c3ccc(C(F)(C(F)(F)F)C(F)(F)F)cc3)(S(=O)(=O)c3ccc(F)cc3)C2)CC[C@H](C(=O)O)CC1`: the remaining at 10 min in data set [1] worked out at 89%. The molecule further displayed an EC50 in data set [2] of over 40 µM. Besides, the Papp in data set [3] worked out at 15.3 ×10⁻⁶ cm/s. Further, the IC50 at Cytochrome P450 1A2, against Cytochrome P450 2C8 and against Cytochrome P450 2C9 was over 10 µM in each case. Further, the Tmax in data set [4] was 30 min.
